This is an account of results in patent US12419824B2, “Compounds useful for the treatment and/or care of the skin, hair, nails and/or mucous membranes” (Lubrizol Advanced Materials, Inc., priority 2019, dated 2025).

Holding throughout (format): cell-based
Assay [1] relates to human muscular skeletal cells (hSKMC). Nature of the assay: Prevention of TNF-α induced muscle mass loss in human skeletal muscle cells, immunofluorescence (Example 9). To be noted: 0.5 mg/ml with 20 ng/ml TNFα, 48 hours, myotube diameter threshold 20 μm. How it is done:
Myosin heavy chain (MHyC) is used as a morphologic marker of differentiated myotubes allowing the measurement of their diameter, and therefore knowing their degree of mass loss. Tumor necrosis factor α (TNF-α) has been described in the literature as a muscle mass loss inductor.
Muscle mass loss prevention by the peptides of the invention is evaluated by an immunofluorescence assay. The aim of this study is to investigate the capacity of peptide candidates to prevent muscular mass loss in presence of TNF-α in human muscular skeletal cells (hSKMC).
hSKMC (Tebu-Bio) are seeded in 96-well plates at a density of 1.5×10^4 cells/well in Skeletal Muscle Cell Growth Medium (Promocell). After 24 hours incubation, medium is replaced with Skeletal Muscle Cell Differentiation Medium (Promocell) and cells are differentiated for 6 days. After this, fresh differentiation medium with 0.5 mg/ml of test items and 20 ng/ml of TNFα (Sigma) is added. Treatment is continued for 48 hours and non-treated cells are used as basal control and 20 ng/ml TNFα treated cells are used as a muscle mass loss control. […] Finally, myotube diameter is determined by imaging MHyC staining by Operetta™ (Perkin Elmer). Percentage of mass loss is automatically calculated with Harmony™ (Perkin Elmer) software by classifying myotubes according to their diameter using an atrophic threshold of 20 μm. […]

Assay [2] deals with Muscle bind like protein 1 (MBNL1). Nature of the assay: MBNL1 quantification in human skeletal muscle cells by TR-FRET (Examples 7, 19). The settings on record: hSkMc (Innoprot), 0.5 mg/ml, 48 hours, normalized to total protein. How it is done: MBNL1 induction by the peptides of the invention is evaluated by a Time resolved fluorescence resonance energy transfer (TR-FRET) assay. The aim of this study is to investigate the capacity of peptide candidates to increase MBNL1 in human skeletal muscle cells (hSkMc).
hSkMc (Innoprot) are seeded in 12-well plates at a density of 1.5×10^4 cells/well in Skeletal Muscle Cell Growth Medium (Promocell). After 72 hours incubation, medium is removed and replaced with Skeletal Muscle Cell Differentiation Medium (Promocell). 48 hours after beginning cell differentiation, fresh differentiation medium with 0.5 mg/ml of test items is added. Treatment is continued for 48 hours and non-treated cells are used as basal control. After 48 hours of treatment, cell medium is removed and added cell lysis buffer to wells. Immediately, plates are kept at −80° C. in order to improve protein extraction during the defrosting process. After 72 hours, cells are lysated by shaking the plates in an orbital rotor at room temperature for 45 minutes. Next, cell lysates are collected and assayed to quantify the level of MBNL1 protein and total protein concentration.
MBNL1 protein levels measurement is performed with Human MBNL1 Assay Kit (Cisbio) according to the manufacturer's protocol. Briefly, the kit is used to perform a TR-FRET for MBNL1 quantification. The protein is detected with the antibodies provided in the kit and quantified by a fluorescence measurement. The quantification is carried out by using a microplate reader (ClarioStar, BMG) set to 665 nm and 620 nm.
Total protein concentration of cell lysate is determined by using Pierce BCA Protein Assay Kit™ (Thermo Scientific) according to manufacturer's protocol. In brief, after adding Working Reagent to the samples and the standards, the samples are incubated. Afterwards, color change is measured with an absorbance microplate reader (Clariostar™, BMG) at 562 nm. The total protein amount is used to normalize the level of MBNL1 protein concentration obtained by the TR-FRET test in the samples.
Different peptides of the invention are tested as disclosed in Example 7 at 0.5 mg/mL.

Assay [3] has as its system human muscular skeletal cells (hSKMC). The assay can be described thus: Alleviation (correction) of TNF-α induced muscle mass loss in human skeletal muscle cells, immunofluorescence (Example 10). To be noted: 0.01 mg/ml after 24 hours of 20 ng/ml TNFα, myotube diameter threshold 20 μm. How it is done:
Muscle mass loss correction by the peptides of the invention is evaluated by an immunofluorescence assay. The aim of this study is to investigate the capacity of peptide candidates to correct muscular mass loss after treatment with TNF-α in human muscular skeletal cells (hSKMC). Myosin heavy chain (MHyC) is used as a morphologic marker of differentiated myotubes allowing the measurement of their diameter, and therefore knowing their degree of mass loss. Tumor necrosis factor α (TNF-α) has been described in the literature as a muscle mass loss inductor.
hSKMC (Tebu-Bio) are seeded in 96-well plates at a density of 1.5×10^4 cells/well in Skeletal Muscle Cell Growth Medium (Promocell). After 24 hours incubation, medium is replaced with Skeletal Muscle Cell Differentiation Medium (Promocell) and cells are differentiated for 6 days. After this, muscular cells mass loss is induced by adding fresh differentiation medium with 20 ng/ml TNFα (Sigma). Non-TNFα treated cells are used as basal mass loss control (BC). […] After 24 hours after the second treatment, immunofluorescence is determined. […] Finally, myotube diameter is determined by imaging MHyC staining by Operetta™ (Perkin Elmer). Percentage of mass loss is automatically calculated with Harmony™ (Perkin Elmer) software by classifying myotubes according to their diameter using a mass loss threshold of 20 μm.

For “Ac-Asp-Val-Tyr-Lys-NH2 (Ac-DVYK-NH2) [PEP1]”, in assay [1], the “muscle mass loss compared to TNF-α treatment (prevention)” value is given as “prevent mass loss”. For the same substance, the “MBNL1 levels compared to the basal control” value in assay [2] was “increase MBNL1 levels”. Moreover, in assay [3], the “muscle mass loss compared to basal control treated with TNF-α (correction)” value was “correct (i.e., reduces) mass loss”.
As to “H-Ala-Leu-Lys-Pro-Asn-Thr-NH2 (H-ALKPNT-NH2) [PEP2]”, the “muscle mass loss compared to TNF-α treatment (prevention)” value in assay [1] is “prevent mass loss”. In assay [2], the “MBNL1 levels compared to the basal control” value was “increase MBNL1 levels”. For the same substance, the “muscle mass loss compared to basal control treated with TNF-α (correction)” value in assay [3] is reported as “correct (i.e., reduces) mass loss”.
